Reference: EP4623908A1, “USE OF (-)-EPIGALLOCATECHIN GALLATE COMPOUND” (CF Pharmtech, Inc., priority 2022, dated 2024)

Key:
[1] = test system: Pulmonary Fibrosis Induced by Bleomycin in Rats; assay: Bleomycin-induced pulmonary fibrosis model in rats (Example 5); format: in vivo, SD rats; conditions: for Hydroxyproline Content: rat lung tissue, Mean ±SEM
Experimental: This study aims to compare the effects of different administration methods, including oral gavage of EGCG, tracheal nebulization of pirfenidone solution, and tracheal nebulization of EGCG at different doses, on the collagen content in lung tissues and pathological observations of rats with bleomycin-induced pulmonary fibrosis. The therapeutic effect of inhaled EGCG on rat pulmonary fibrosis was evaluated.
The solvents for the EGCG nebulization solution, modeling agents, and their solvents are as described in Example 4. The positive control drug is pirfenidone (purity 99%, pharmaceutical grade), with the solvent components consisting of NaCl and citric acid, forming a clear liquid.
SPF-grade SD rats, 6-9 weeks old with a weight of 200-300g, totaling 88 rats, were randomly divided into the following groups: • Sham operation group (normal control) (8 rats) • Pulmonary fibrosis model control group (10 rats) • Oral gavage EGCG group 1 (10 rats) • Oral gavage EGCG group 2 (10 rats) • Tracheal Nebulization EGCG solution groups 1-4 (10 rats per group, total 40 rats) • Tracheal Nebulization pirfenidone solution group (10 rats)
On D1, the normal control group was administered solvent 2 (saline injection solution, 1 mL/kg) via tracheal nebulization, while all other groups were administered bleomycin (2.5 mg/kg, 1 mL/kg) via tracheal nebulization twice a day (morning and afternoon) to establish the model. On D8, the body weights of the animals were recorded. From D10 to D28, the normal control and pulmonary fibrosis model groups were treated with solvent 1 via tracheal nebulization, while the remaining groups were administered EGCG or pirfenidone once daily at the following doses and administration methods: • Oral gavage EGCG group 1 and 2: 30 mg/kg, 60 mg/kg • Tracheal Nebulization EGCG group 1-4: 0.05 mg/kg, 0.4 mg/kg, 0.8 mg/kg, 1.6 mg/kg • Tracheal Nebulization pirfenidone solution group: 0.9 mg/kg (reference dose from M.W. Surber et al., ATS POSTER, 2014)
On D29, all animals were euthanized for dissection. During the necropsy, the lungs, trachea, and bronchi were examined for abnormalities. Left lung tissue was preserved at below -60°C for hydroxyproline content detection, and right lung tissue was prepared for pathological sectioning. Hematoxylin and eosin (HE) staining and Masson staining were performed for pathological morphological observations and fibrosis evaluation.
All groups were compared to the model group using statistical analysis via Kruskal-Wallis test. The results are indicated as follows: • *P < 0.05: statistically significant difference • **P < 0.01: highly significant difference • ***P < 0.001: extremely significant difference • ****P < 0.0001: extremely highly significant difference

[2] = biological target: T1, lysyl oxidase-like protein-2 (LOXL2) (Homo sapiens, UniProt Q9Y4K0); conditions: cited from earlier work
T1 sequence (Q9Y4K0 26-774): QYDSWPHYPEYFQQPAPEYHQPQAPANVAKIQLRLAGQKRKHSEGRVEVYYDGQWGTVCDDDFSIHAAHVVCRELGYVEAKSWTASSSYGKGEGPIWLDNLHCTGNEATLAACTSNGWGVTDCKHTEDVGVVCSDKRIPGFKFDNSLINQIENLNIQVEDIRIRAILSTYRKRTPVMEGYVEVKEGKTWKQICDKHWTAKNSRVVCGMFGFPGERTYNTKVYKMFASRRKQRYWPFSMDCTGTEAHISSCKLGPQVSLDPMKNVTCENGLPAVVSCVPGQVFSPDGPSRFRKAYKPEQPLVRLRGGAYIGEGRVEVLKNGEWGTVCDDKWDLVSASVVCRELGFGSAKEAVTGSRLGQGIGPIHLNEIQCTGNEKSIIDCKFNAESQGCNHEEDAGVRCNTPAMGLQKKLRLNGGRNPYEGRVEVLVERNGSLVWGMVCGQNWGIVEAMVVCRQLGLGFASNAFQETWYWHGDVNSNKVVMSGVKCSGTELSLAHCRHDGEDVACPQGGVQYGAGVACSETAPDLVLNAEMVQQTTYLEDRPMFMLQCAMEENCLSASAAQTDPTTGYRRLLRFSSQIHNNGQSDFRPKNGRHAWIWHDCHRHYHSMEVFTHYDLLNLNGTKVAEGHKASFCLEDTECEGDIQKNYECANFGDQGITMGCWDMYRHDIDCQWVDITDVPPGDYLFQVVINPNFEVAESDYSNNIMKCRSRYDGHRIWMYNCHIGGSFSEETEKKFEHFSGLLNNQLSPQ

[3] = Single-dose escalation study of nebulized inhalation solution in healthy volunteers, safety and pharmacokinetics (Example 7); format: in vivo; conditions: for subjects with local symptoms in the oropharynx and respiratory tract: nebulized inhalation solution, single dose
Experimental: A randomized, double-blind, placebo-controlled clinical study was conducted with 22 healthy volunteers to evaluate the safety and tolerability of single-dose inhalation of EGCG nebulized solution, as well as pharmacokinetic characteristics, compared to placebo nebulized solution and oral EGCG capsules.
Test group: EGCG nebulized inhalation solution (the EGCG nebulized solution containing EDTA as described in Example 6), with an initial concentration of 10mg/mL, diluted to different doses before administration.
Oral control group: EGCG capsules, each weighing 150mg, with EGCG content approximately 94% of the total weight.
Refer to Table 6 below. The oral control group was randomly assigned 4 volunteers to receive 600mg of EGCG capsules (4 capsules, approximately 564mg of EGCG).
The EGCG nebulized inhalation treatment included 3 groups: • 1. 3mg dose group: 1mL of the starting drug solution was diluted to 1mg/mL, and 3mL was administered via the nebulizer. • 2. 10mg dose group: 1mL of the starting drug solution was diluted to 3.33mg/mL, and 3mL was administered via the nebulizer. • 3. 30mg dose group: The starting drug solution was not diluted, and 3mL was directly administered via the nebulizer.
Each nebulized inhalation dose group was randomly assigned 6 volunteers, starting with the lowest dose. In each group, 2 volunteers were designated as sentinels (1:1 randomization, 1 in the EGCG nebulized inhalation group and 1 in the placebo group), observed for ≥24 hours, and the study investigator performed a safety assessment. After permission from the investigator, the remaining 4 volunteers in each group received their assigned treatment (3:1 randomization, 3 in the EGCG nebulized inhalation group and 1 in the placebo group). Table 6: Group Information for Oral Control and EGCG Nebulized Inhalation Administration Groups.
Blood samples were collected from the subjects at 13 time points: pre-dose (within 1 hour before administration), and post-dose at 15 minutes, 30 minutes, 1 hour, 1.5 hours, 2 hours, 3 hours, 4 hours, 6 hours, 8 hours, 10 hours, 12 hours, and 24 hours. A total of 4mL of blood was collected at each time point, and plasma was extracted for pharmacokinetic (PK) testing, backup, and metabolite identification.
Adverse event (AE) monitoring; physical examination; vital signs (body temperature, blood pressure, pulse, respiration), blood oxygen saturation; heart function; lung function.

[4] = human plasma, after inhalation compared to oral administration

O=C(O[C@@H]1Cc2c(O)cc(O)cc2O[C@@H]1c1cc(O)c(O)c(O)c1)c1cc(O)c(O)c(O)c1 [EGCG, (-)-Epigallocatechin gallate]
hydroxyproline content in rat lungs, difference from the model group ([1]; inhalation 0.05 (P < 0.05), 0.4 (P < 0.0001), 0.8 and 1.6 mg/kg (P < 0.001)): significantly reduced
hydroxyproline content in rat lungs, difference from the model group ([1]; oral administration 30 mg/kg, 60 mg/kg): not statistically significant
Hydroxyproline Content ([1]; Inh 0.05mg/kg once daily D10 to D28): 0.528 ± 0.038 µg/µL
Hydroxyproline Content ([1]; Inh 0.4mg/kg once daily D10 to D28): 0.433 ± 0.023 µg/µL
Hydroxyproline Content ([1]; Inh 0.8mg/kg once daily D10 to D28): 0.485 ± 0.027 µg/µL
Hydroxyproline Content ([1]; Inh 1.6 mg/kg once daily D10 to D28): 0.465 ± 0.028 µg/µL
Hydroxyproline Content ([1]; PO 30mg/kg once daily D10 to D28): 0.608 ± 0.012 µg/µL
Hydroxyproline Content ([1]; PO 60mg/kg once daily D10 to D28): 0.546 ± 0.026 µg/µL
inhibition of LOXL2 [2]: effectively inhibit
overall tolerability ([3]; after nebulized inhalation 3mg/10mg/30mg): overall tolerability was good
physical examination, vital signs, heart function, and lung function ([3]; all subjects (nebulized 3mg/10mg/30mg, oral capsules 600mg)): No significant abnormalities
inhalation Cmax relative to the oral Cmax ([3]; human plasma, 10mg nebulized dose group vs oral capsules 600mg): about 1/227
Cmax level [3, 4]: lower
time to reach peak plasma concentration (Tmax) [3, 4]: later
subjects with local symptoms in the oropharynx and respiratory tract ([3]; 3mg dose group): no subjects
subjects with local symptoms in the oropharynx and respiratory tract ([3]; 10mg dose group, mild): 1 out of 4
subjects with local symptoms in the oropharynx and respiratory tract ([3]; 30mg dose group, mild): 2 out of 4
